According to article PMC5834442, “Identifying inhibitors of the Leishmania inositol phosphorylceramide synthase with antiprotozoal activity using a yeast-based assay and ultra-high throughput screening platform” (Scientific Reports, 2018):
Like-named read-outs stand apart in the source and are kept apart here.

Key:
[1] = tested on: L. donovani (MHOM/SD/62/1S-CL2D, LdBOB) axenic amastigotes; test: Leishmania donovani axenic amastigote dose response assay (resazurin); assay type: cell-based; conditions: -logIC50 mol against L. donovani (LdBOB) axenic amastigotes, read-out: pIC50 Axenic (converted)
HepG2 cells = test: Mammalian cell cytotoxicity assay (CellTiter-Glo); assay type: cell-based, human; conditions: for IC50: Homo sapiens, -logIC50 mol against HepG2, read-out: PIC50 HepG2 (converted)
[2] = tested on: intra-macrophage Leishmania donovani amastigotes; test: Intramacrophage Leishmania donovani assay (high content imaging); assay type: cell-based; conditions: Leishmania donovani
THP-1 macrophages = test: Host cell toxicity in the intramacrophage assay; assay type: cell-based, human; conditions: for IC50: Homo sapiens, THP-1 host cells in intramacrophage assay, read-out: pIC50 THP-1 (converted)
[3] = intramacrophage L. donovani, read-out: pIC50 InMac (converted)
[4] = selectivity: pIC50 InMac minus pIC50 THP-1
[5] = selectivity: pIC50 axenic minus pIC50 HepG2
[6] = selectivity, pIC50 axenic minus pIC50 HepG2
[7] = −logIC50 M, L. donovani infected THP-1 macrophages, 96 hours, read-out: pIC50 against intra-macrophage L. donovani amastigotes (converted)

| IC50 [1] [µM] | SMILES | IC50 (HepG2 cells) [µM] | IC50 (THP-1 macrophages) [µM] | pSI v HepG2 (HepG2 cells; [5]) | also measured |
| --- | --- | --- | --- | --- | --- |
| – | N#Cc1ccc(N2CCCC[C@H]2c2cccnc2)c([N+](=O)[O-])c1 [compound 5] | – | – | – | IC50 [2, 7]: 2 µM |
| – | CNC(=O)c1ccsc1NC(=O)c1ccc([N+](=O)[O-])s1 [compound 4] | – | – | – | IC50 [2, 7]: 1.26 µM |
| – | NC(=O)c1ccsc1NC(=O)c1ccc([N+](=O)[O-])s1 [compound 3] | – | – | – | IC50 [2, 7]: 2 µM |
| 2.95 | COC1(C)CCC(=Cc2ccc(Cl)cc2)CC1(O)Cn1ccnc1 (stereo not shown) [ST/1099846] | 72.4 | > 50.1 | 1.39 | – |
| 1.55 | Cc1nc(-c2ccccc2)c(-c2ccnc(Nc3cc(S(N)(=O)=O)ccc3C)n2)s1 [N6896-93-B1] | > 100 | – | 1.81 | – |
| 9.12 | O=S(=O)(Nc1cccc(F)c1CN1CCC(F)(F)C1)c1ccc(Cl)c(Cl)c1 [DS105792-004A6B1] | 47.9 | – | 0.72 | – |
| 5.89 | COc1ccc(N(Cc2ccc(-c3ccccc3)o2)S(=O)(=O)c2ccccn2)cc1 [AD102638-200A3B22] | 61.7 | – | 1.02 | – |
| 0.661 | CNS(=O)(=O)c1ccc(C)c(Nc2nccc(-c3sc(C)nc3-c3ccccc3)n2)c1 [N6896-96-B1] | 38 | – | 1.76 | – |
| 3.16 | Cc1cccc2sc(N(Cc3cccnc3)C(=O)C3CCCCC3)nc12 [ST/712281] | 85.1 | – | 1.43 | – |
| 5.75 | OC(Cn1ccnc1)(c1ccc(Cl)cc1Cl)C1CCCCC1 (stereo not shown) [CJL/479/3] | 45.7 | – | 0.90 | – |
| 2.75 | Oc1ccc(-c2nccc(-c3ccc(Cl)cc3)n2)cc1 [SC/101464] | > 100 | – | 1.56 | – |
| 4.17 | O=[N+]([O-])c1cc(NS(=O)(=O)c2ccc(Cl)c(C(F)(F)F)c2)ccc1F [ST/654862] | 38.9 | – | 0.97 | – |
| 8.91 | CCCc1cc(=O)[nH]c(Nc2cc(Cl)cc(Cl)c2)n1 [ST/826453] | 14.1 | – | – | pSI v HepG2 (HepG2 cells; [6]): 0.20 |

| SMILES | IC50 [1] [µM] | IC50 (HepG2 cells) [µM] | IC50 (THP-1 macrophages) [µM] | pSI v HepG2 (HepG2 cells; [5]) | also measured |
| --- | --- | --- | --- | --- | --- |
| N#Cc1ccc(N2CCCC[C@H]2c2cccnc2)c([N+](=O)[O-])c1.O=C(O)C(F)(F)F.O=C(O)C(F)(F)F [MA102475-064A1B46] | 5.01 | 95.5 | > 50.1 | – | pSI v HepG2 (HepG2 cells): 1.28; IC50 [2, 3]: 2.04 µM; pSI v THP-1 (THP-1 macrophages; [4]): 1.39 |
| O=C(NC1CCN(Cc2ccc(Cl)s2)CC1)N1CCc2cc(Cl)ccc21 [ST/1291407] | 2.88 | 67.6 | 6.03 | 1.37 | IC50 [2, 3]: 2.09 µM; pSI v THP-1 (THP-1 macrophages; [4]): 0.46 |
| CNC(=O)c1ccsc1NC(=O)c1ccc([N+](=O)[O-])s1 [ST/492114] | 0.891 | > 100 | > 50.1 | 2.05 | IC50 [2, 3]: 1.41 µM; pSI v THP-1 (THP-1 macrophages; [4]): 1.55 |
| COc1ccc(CN2CCN(S(=O)(=O)c3ccc(OC(F)(F)F)cc3)CC2)cc1 [SC/122159] | 0.275 | > 100 | > 50.1 | 2.56 | IC50 [2, 3]: 35.5 µM; pSI v THP-1 (THP-1 macrophages; [4]): 0.15 |
| NC(=O)c1ccsc1NC(=O)c1ccc([N+](=O)[O-])s1 [ST/918837] | 0.331 | > 100 | 26.9 | – | pSI v HepG2 (HepG2 cells; [6]): 2.48; IC50 ([2]; intramacrophage L. donovani amastigotes, read-out: pIC50 InMac (converted)): 2.04 µM; pSI v THP-1 (THP-1 macrophages; selectivity, pIC50 InMac minus pIC50 THP-1): 1.12 |
| O=C(O)C(F)(F)F.O=c1[nH]ccc2nc(NCCc3c[nH]cn3)nc(Nc3cccc(S(=O)(=O)N4CCOCC4)c3)c12 [N4347-22-1] | 10 | > 100 | > 50.1 | – | pSI v HepG2 (HepG2 cells): 1.00; IC50 [2, 3]: 38.9 µM; pSI v THP-1 (THP-1 macrophages; [4]): 0.11 |
| O=C(O)C(F)(F)F.O=S(=O)(c1ccc2c(c1)CCN(Cc1cccnc1)CC2)n1ccc2c(F)cccc21 [CS100462-069A14B4] | 0.447 | 52.5 | 33.9 | – | pSI v HepG2 (HepG2 cells): 2.07; IC50 [2, 3]: 2 µM; pSI v THP-1 (THP-1 macrophages; [4]): 1.23 |
| Cc1cc([N+](=O)[O-])ccc1NC(=O)Nc1cccc(F)c1 [SC/109683] | 3.8 | 13.2 | – | – | pSI v HepG2 (HepG2 cells): 0.54 |
